Values quoted from earlier work in patent EP4732851A9, “LINKER, ANTIBODY-DRUG CONJUGATE, AND PREPARATION METHOD THEREFOR” (Fudan University, priority 2024, dated 2025).

Conditions: background statement; cited from earlier work

PNU-159682
activity compared to MMDX and doxorubicin: 3000 fold
